Experimental findings from patent US20250179073A1, “TRICYCLIC HETEROCYCLE COMPOUNDS AS IAP ANTAGONISTS” (Ascentage Pharma (Suzhou) Co., Ltd., priority 2022, published 2025) are described below.

Test [1] has as its system EVSA-T cells. Nature of the test: Cell proliferation assay (CellTiter-Glo), EVSA-T. Format: cell-based. To be noted: Homo sapiens, EVSA-T, 72 h, 72 h treatment, Celltiter-Glo luminescence. The method, boiled down:
(§1)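 Compounds tested over ten concentrations ([…]) for 72 h on EVSA-T cells in MEM/10% FBS and MDA-MB-231 cells in RPMI-1640/10% FBS, seeded at 10000/well. Luminescent CellTiter-Glo readout; IC50 fitted after normalisation to controls.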

The subject of test [2] is MDA-MB-231 cells. Put plainly: Cell proliferation assay (CellTiter-Glo), MDA-MB-231. The test is classed as cell-based. To be noted: Homo sapiens, MDA-MB-231, 72 h, 72 h treatment, Celltiter-Glo luminescence. The method, boiled down: as §1

Turning to `C[C@@H]1CN(CC(=O)N2CC(C)(C)c3c2cc(Cc2ccc(F)cc2)c2nn(Cc4ncccc4F)c(=O)n32)[C@@H](CN2CCOC[C@H]2C)CN1` [Compound 220, 4-(4-fluorobenzyl)-2-((3-fluoropyridin-2-yl)methyl)-8,8-di methyl-6-(2-((2R,5R)-5-methyl-2-(((R)-3-methylmorpholino)methyl)piperazin-1-yl)acetyl)-2,6,7,8-tetrahydro-1H-pyrrolo[2,3-e][1,2,4]triazolo[4,3-a]pyridin-1-one], the values for the IC50 in test [1] and in test [2] were 2 nM and 68 nM, respectively.

As for `C[C@@H]1CN(CC(=O)N2CC(C)(C)c3c2cc(Cc2ccc(F)cc2)c2nc(Cl)cn32)[C@@H](CN2CCOC[C@H]2C)CN1` [Compound 113, 1-(2-chloro-4-(4-fluorobenzyl)-8,8-dimethyl-7,8-dihydro-6H-imidazo[1,2-a]pyrrolo[2,3-e]pyridin-6-yl)-2-((2R,5R)-5-methyl-2-(((R)-3-methylmorpholino)methyl)piperazin-1-yl)ethan-1-one], the IC50 in test [1] was 6 nM; in test [2], 74 nM.

For `C[C@@H]1CN(CC(=O)N2CC(C)(C)c3c2cc(Cc2ccc(F)cc2)c2ncnn32)[C@@H](CN2Cc3ccc(F)cc3C2=O)CN1` [Compound 101, 6-fluoro-2-(((2R,5R)-1-(2-(4-(4-fluorobenzyl)-8,8-dimethyl-7,8-dihydro-6H-pyrrolo[2,3-e][1,2,4]triazolo[1,5-a]pyridin-6-yl)-2-oxoethyl)-5-methylpiperazin-2-yl)methyl)isoindolin-1-one], the concentration for half-maximal inhibition (IC50) in test [1] came to 8 nM; in test [2], 23 nM.

In the case of `C[C@@H]1CN(CC(=O)N2CC(C)(C)c3c2cc(Cc2ccc(F)cc2)c2nc(CF)cn32)[C@@H](CN2CCOC[C@H]2C)CN1` [Compound 121, 1-(4-(4-fluorobenzyl)-2-(fluoromethyl)-8,8-dimethyl-7,8-dihydro-6H-imidazo[1,2-a]pyrrolo[2,3-e]pyridin-6-yl)-2-((2R,5R)-5-methyl-2-(((R)-3-methylmorpholino)methyl)piperazin-1-yl)ethan-1-one], the figures for the IC50 in test [1] and in test [2] were 5 nM and 65 nM, respectively.

With `C[C@@H]1CN(CC(=O)N2CC(C)(C)c3c2cc(Cc2ccc(F)cc2)c2nncn32)[C@@H](CN2CCOC[C@H]2C)CN1` [Example 9, 1-(4-(4-fluorobenzyl)-8,8-dimethyl-7,8-dihydro-6H-pyrrolo[2,3-e][1,2,4]triazolo[4,3-a]pyridin-6-yl)-2-((2R,5R)-5-methyl-2-(((R)-3-methylmorpholino)methyl)piperazin-1-yl)ethan-1-one], the IC50 in test [1] amounted to 18 nM; in test [2] it was 530 nM.

In the case of `C[C@@H]1CN(CC(=O)N2CC(C)(C)c3c2cc(Cc2ccc(F)cc2)c2nn(Cc4ccncc4)c(=O)n32)[C@@H](CN2CCOC[C@H]2C)CN1` [Compound 254, 4-(4-fluorobenzyl)-8,8-dimethyl-6-(2-((2R,5R)-5-methyl-2-(((R)-3-methylmorpholino)methyl)piperazin-1-yl)acetyl)-2-(pyridin-4-ylmethyl)-2,6,7,8-tetrahydro-1H-pyrrolo[2,3-e][1,2,4]triazolo[4,3-a]pyridin-1-one], the figures for the half-maximal inhibitory concentration (IC50) in test [1] and in test [2] were 3.8 nM and 69 nM, respectively.

With `C[C@@H]1CN(CC(=O)N2CC(C)(C)c3c2cc([C@@H](O)c2ccc(F)cc2)c2ncnn32)[C@@H](CN2CCOC[C@H]2C)CN1` [Compound 133, 1-(4-((S)-(4-fluorophenyl)(hydroxy)methyl)-8,8-dimethyl-7,8-dihydro-6H-pyrrolo[2,3-e][1,2,4]triazolo[1,5-a]pyridin-6-yl)-2-((2R,5R)-5-methyl-2-(((R)-3-methylmorpholino)methyl)piperazin-1-yl)ethan-1-one], the IC50 in test [1] is 56 nM; in test [2], 210 nM.

Regarding `C[C@@H]1CN(CC(=O)N2CC(C)(C)c3c2cc(Cc2ccc(F)cc2)c2ncc(C#N)n32)[C@@H](CN2CCOC[C@H]2C)CN1` [Compound 111, 4-(4-fluorobenzyl)-8,8-dimethyl-6-(2-((2R,5R)-5-methyl-2-(((R)-3-methylmorpholino)methyl)piperazin-1-yl)acetyl)-7,8-dihydro-6H-imidazo[1,2-a]pyrrolo[2,3-e]pyridine-1-carbonitrile], the half-inhibitory concentration (IC50) in test [1] turned out to be 2 nM; in test [2], 42 nM.

For `C[C@@H]1CN(CC(=O)N2CC(C)(C)c3c2cc(Cc2ccc(F)cc2)c2ncnn32)[C@@H](CN2Cc3cccnc3C2=O)CN1` [Compound 98, 6-(((2R,5R)-1-(2-(4-(4-fluorobenzyl)-8,8-dimethyl-7,8-dihydro-6H-pyrrolo[2,3-e][1,2,4]triazolo[1,5-a]pyridin-6-yl)-2-oxoethyl)-5-methylpiperazin-2-yl)methyl)-5,6-dihydro-7H-pyrrolo[3,4-b]pyridin-7-one], the half-maximal inhibitory concentration (IC50) worked out at 8 nM in test [1] and 72 nM in test [2].

For the compound `CCNC(=O)c1nc2c(Cc3ccc(F)cc3)cc3c(n2n1)C(C)(C)CN3C(=O)CN1C[C@@H](C)NC[C@@H]1CN1CCOC[C@H]1C` [Compound 259, N-ethyl-4-(4-fluorobenzyl)-8,8-dimethyl-6-(2-((2R,5R)-5-methyl-2-(((R)-3-methylmorpholino)methyl)piperazin-1-yl)acetyl)-7,8-dihydro-6H-pyrrolo[2,3-e][1,2,4]triazolo[1,5-a]pyridine-2-carboxamide], the IC50 in test [1] was 15.8 nM; in test [2], 87 nM.

As for `COC(=O)N1CCN(CC2CN[C@H](C)CN2CC(=O)N2CC(C)(C)c3c2cc(Cc2ccc(F)cc2)c2ncnn32)[C@H](C)C1` (stereo in doubt) [Compound 223, methyl (R)-4-(((2S,5R)-1-(2-(4-(4-fluorobenzyl)-8,8-dimethyl-7,8-dihydro-6H-pyrrolo[2,3-e][1,2,4]triazolo[1,5-a]pyridin-6-yl)-2-oxoethyl)-5-methylpiperazin-2-yl)methyl)-3-methylpiperazine-1-carboxylate], the half-inhibitory concentration (IC50) in test [1] is 3 nM; in test [2], 77 nM.

Turning to `C[C@@H]1CN(CC(=O)N2CC(C)(C)c3c2cc(Cc2ccc(F)cc2)c2nn(CC(O)C4CC4)c(=O)n32)[C@@H](CN2CCOC[C@H]2C)CN1` (stereo partly drawn) [Compound 270, 2-(2-cyclopropyl-2-hydroxyethyl)-4-(4-fluorobenzyl)-8,8-dimethyl-6-(2-((2R,5R)-5-methyl-2-(((R)-3-methylmorpholino)methyl)piperazin-1-yl)acetyl)-2,6,7,8-tetrahydro-1H-pyrrolo[2,3-e][1,2,4]triazolo[4,3-a]pyridin-1-one], the IC50 in test [1] amounted to 11.5 nM; in test [2] it was 51 nM.

Take `C[C@@H]1CN(CC(=O)N2CC(C)(C)c3c2cc(Cc2ccc(F)cc2)c2nn(CC(C)(C)O)c(=O)n32)[C@@H](CN2CC3CCC(C2)O3)CN1` [Compound 265, 6-(2-((2R,5R)-2-((8-oxa-3-azabicyclo[3.2.1]octan-3-yl)methyl)-5-methylpiperazin-1-yl)acetyl)-4-(4-fluorobenzyl)-2-(2-hydroxy-2-methylpropyl)-8,8-dimethyl-2,6,7,8-tetrahydro-1H-pyrrolo[2,3-e][1,2,4]triazolo[4,3-a]pyridin-1-one]: the IC50 turned out to be 26.8 nM in test [1] and 41 nM in test [2].

With `C[C@@H]1CN(CC(=O)N2CC(C)(C)c3c2cc(Cc2ccc(F)cc2)c2nc(C(F)F)nn32)[C@@H](CN2CCOC[C@H]2C)CN1` [Compound 142, 1-(2-(difluoromethyl)-4-(4-fluorobenzyl)-8,8-dimethyl-7,8-dihydro-6H-pyrrolo[2,3-e][1,2,4]triazolo[1,5-a]pyridin-6-yl)-2-((2R,5R)-5-methyl-2-(((R)-3-methylmorpholino)methyl)piperazin-1-yl)ethan-1-one], the half-maximal inhibitory concentration (IC50) in test [1] is 2 nM; in test [2], 50 nM.

For the compound `C[C@@H]1CN(CC(=O)N2CC(C)(C)c3c2cc(Cc2ccc(F)cc2)c2nc(C(N)=O)cn32)[C@@H](CN2CCOC[C@H]2C)CN1` [Example 20, 4-(4-fluorobenzyl)-8,8-dimethyl-6-(2-((2R,5R)-5-methyl-2-(((R)-3-methylmorpholino)methyl)piperazin-1-yl)acetyl)-7,8-dihydro-6H-imidazo[1,2-a]pyrrolo[2,3-e]pyridine-2-carboxamide], the IC50 in test [1] is 13 nM; in test [2], 110 nM.

On to `C[C@@H]1CN(CC(=O)N2CC(C)(C)c3c2cc(Cc2ccc(Cl)cc2)c2ncnn32)[C@@H](CN2CCOC[C@H]2C)CN1` [Compound 44, 1-(4-(4-chlorobenzyl)-8,8-dimethyl-7,8-dihydro-6H-pyrrolo[2,3-e][1,2,4]triazolo[1,5-a]pyridin-6-yl)-2-((2R,5R)-5-methyl-2-(((R)-3-methylmorpholino)methyl)piperazin-1-yl)ethan-1-one], for which the results for the half-inhibitory concentration (IC50) in test [1] and in test [2] were 9 nM and 75 nM, respectively.

Regarding `C[C@@H]1CN(CC(=O)N2CC(C)(C)c3c2cc(Cc2ccc(F)cc2)c2nc(N)nn32)[C@@H](CN2CCOC[C@H]2C)CN1` [Example 30, 1-(2-amino-4-(4-fluorobenzyl)-8,8-dimethyl-7,8-dihydro-6H-pyrrolo[2,3-e][1,2,4]triazolo[1,5-a]pyridin-6-yl)-2-((2R,5R)-5-methyl-2-(((R)-3-methylmorpholino)methyl)piperazin-1-yl)ethan-1-one], the IC50 in test [1] worked out at 3 nM; in test [2] it was 16 nM.

As for `COc1cc(F)ccc1Cc1cc2c(n3ncnc13)C(C)(C)CN2C(=O)CN1C[C@@H](C)NC[C@@H]1CN1CCOC[C@H]1C` [Compound 41, 1-(4-(4-fluoro-2-methoxybenzyl)-8,8-dimethyl-7,8-dihydro-6H-pyrrolo[2,3-e][1,2,4]triazolo[1,5-a]pyridin-6-yl)-2-((2R,5R)-5-methyl-2-(((R)-3-methylmorpholino)methyl)piperazin-1-yl)ethan-1-one], the figures for the concentration for half-maximal inhibition (IC50) in test [1] and in test [2] were 14 nM and 78 nM, respectively.
